This data set in a line: Urinary PABA recovery (compliance marker), Example 1 trial. The class given is in vivo, human. The following applies: 24 h urine, all time points; 120 mg PABA per bar, 2 bars daily. The procedure:
Subjects were then randomized in a parallel design into two groups to receive either the nutrient test bar or placebo food. Both placebo and test bars contained 120 mg PABA (para-aminobenzoic acid), urinary excretion of which was used as a measure of compliance. Subjects were asked to continue adherence to dietary restrictions described above and to consume the provided test or control product twice daily (once with breakfast and once with evening meal) over the 10 week period.
Fasting venous blood samples were collected at the start of the 10 week intervention phase and on the last week of the intervention period. Serum and EDTA plasma samples were then collected following centrifugation at 3000 rpm for 10 mins at 4° C. and aliquots stored at −80° C. prior to analysis. Twenty-four hour urine samples were also collected at a total of 6 different time points through the study to monitor PABA excretion.
33 subjects completed the study. Compliance was judged to be good as assessed by both subjective and objective measures. Briefly, subjects completed a food diary, in which labels attached to study bars were peeled off and stuck once consumed. The maximum number of bars reported to be missed was 14 during the 12 week (and therefore 168 bar) trial. This was corroborated by the urinary PABA results, which were used as an objective measure of compliance.

Each structure is given as a SMILES string. A value given as a limit tells only on which side of the number the result lay.

Regarding `Nc1ccc(C(=O)O)cc1` [PABA, para-aminobenzoic acid], the PABA recovery is greater than 85%.

The values above are taken from patent US20060160753A1, “Micronutrient formulation for cognitive & mood benefits” (Conopco Inc, d/b/a UNILEVER, priority 2004, published 2006).
